Several values for one entry are separate records, joined by “and”; a condition that tells them apart may be missing. Identical values can stand only once.
Molecular target: T1, human TAS2R4 (Homo sapiens, UniProt Q9NYW5)
T1 construct: expressed in transfected cells; host or cells: HEK293T-Gα16gust44
T1 sequence (Q9NYW5 1-299): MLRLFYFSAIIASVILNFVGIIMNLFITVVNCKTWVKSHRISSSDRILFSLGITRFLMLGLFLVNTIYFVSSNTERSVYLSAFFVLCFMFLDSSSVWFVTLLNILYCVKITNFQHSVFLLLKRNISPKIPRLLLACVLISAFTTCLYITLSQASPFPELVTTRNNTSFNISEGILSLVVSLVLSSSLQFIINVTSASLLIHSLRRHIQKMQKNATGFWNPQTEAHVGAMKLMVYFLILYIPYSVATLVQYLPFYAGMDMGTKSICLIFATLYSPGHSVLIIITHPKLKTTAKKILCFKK
Experiment: Calcium imaging assay (FLIPR), HEK293T-Gα16gust44 cells transfected with human TAS2R4
Format: cell-based
Procedure: This set of bile acids was chosen because of their commercial availability in high purities, their diversity within the class of bile acids and their previous detection and quantitation in human blood. Stock solutions were prepared in DMSO.
As basal growth medium for the HEK293T-Gα16gust44 cell line[17],[59] served Dulbecco’s modified eagle medium (DMEM) (Thermo Fisher Scientific, Darmstadt, Germany) supplemented with 10 % fetal bovine serum (Sigma-Aldrich, Steinheim, Germany), 2 mM L-glutamine (Sigma-Aldrich, Steinheim, Germany), 100 units/ml penicillin (Sigma Aldrich, Steinheim, Germany) and 100 µg/ml streptomycin (Sigma Aldrich, Steinheim, Germany). Growth conditions were 37 °C, 5 % CO2 and saturated air-humidity[60].
HEK293T-Gα16gust44 cells were seeded on poly-D-lysine (10 µg/ml) coated 96-well plates to reach a confluence of 40-60 % the next day. For transient transfection 150 ng of plasmid DNA containing the receptor of interest and 0.3 µl lipofectamine 2000 (Thermo Fisher Scientific, Darmstadt, Germany) per well were used and transfection took place according to the manual of lipofectamine 2000. […] The empty vector DNA (mock) was transfected as negative control[14],[41].
Cells were loaded using the calcium-sensitive fluorescent dye Fluo-4-AM (Abcam, Cambridge, Great Britain) in the presence of 2.5 mM probenecid (Sigma-Aldrich, Steinheim, Germany) the day after transfection[13],[41]. 1 h after loading, cells were washed with C1 buffer using a BioTek Cell Washer, incubated in the dark for half an hour and washed again. For automated agonist application and measurement of fluorescence changes, a FLIPR^TETRA device (Molecular Devices, San José, United States) was used. Viability of cells was tested by application of 100 nM Somatostatin 14 (Bachem, Bubendorf, Switzerland)[42].
Measured data were negative control corrected by subtracting the signal of the mock-transfected cells and exported to Microsoft Excel using the FLIPR software ScreenWorks 4.2. In Microsoft Excel software, standardization of maximum fluorescence intensities to the basal fluorescence and normalization to the buffer-only control was done to calculate the relative fluorescence changes (ΔF/F).
Initial screening experiments performed in duplicate wells were confirmed by at least one replication and representative traces were selected for display. All dose-response relationships were determined by three independent experiments (biological replicates) performed in duplicates (technical replicates). Threshold concentrations, defined as lowest substance concentrations leading to statistically significant elevated fluorescence changes in receptor-transfected cells compared with empty vector-transfected cells, were determined using SigmaPlot with Student’s t-test to evaluate statistical significance (p < 0.01).

C[C@H](CCC(=O)NCC(=O)O)[C@H]1CC[C@H]2[C@@H]3[C@H](O)C[C@@H]4C[C@H](O)CC[C@]4(C)[C@H]3C[C@H](O)[C@]12C [Glycocholic Acid, glycocholic acid]
Efficacy = maximal amplitude (ΔF/F) (TAS2R4, bile acids, mean): 0.1626 | Efficacy (maximal amplitude ΔF/F), individual data points (TAS2R4, bile acids, single replicates, listed as GCA): 0.1367 and 0.1786 and 0.1725 | Δ F/F (TAS2R4, conc. 0,01 mM): 0.01565 | Δ F/F (TAS2R4, conc. 0,1 mM): 0.106 | Δ F/F (TAS2R4, conc. 0,03 mM): 0.03923 | Δ F/F (TAS2R4, conc. 0,3 mM): 0.1626 | Δ F/F (TAS2R4, conc. 0,001 mM): 0.006443 | Δ F/F (TAS2R4, conc. 0,003 mM): 0.006613 | RLU, fluorescence trace (Time (s) 0): 0 RLU | RLU, fluorescence trace (Time (s) 2): 4.14 RLU | RLU, fluorescence trace (Time (s) 4): -20.6032 RLU | RLU, fluorescence trace (Time (s) 6): -25.8877 RLU | RLU, fluorescence trace (Time (s) 8): -29.799 RLU | RLU, fluorescence trace (Time (s) 12): -12.9106 RLU | RLU, fluorescence trace (Time (s) 14): -6.673 RLU | RLU, fluorescence trace (Time (s) 16): -18.2287 RLU | RLU, fluorescence trace (Time (s) 18): -27.0676 RLU | RLU, fluorescence trace (Time (s) 18.766 (TCA, TLCA: 18.782)): -34.2066 RLU | RLU, fluorescence trace (Time (s) 20.781 (TCA, TLCA: 20.782)): -42.9373 RLU | RLU, fluorescence trace (Time (s) 22.781 (TCA, TLCA: 22.782)): 15.1075 RLU | RLU, fluorescence trace (Time (s) 24.781 (TCA, TLCA: 24.782)): 91.6518 RLU | RLU, fluorescence trace (Time (s) 26.781 (TCA, TLCA: 26.782)): 179.573 RLU | RLU, fluorescence trace (Time (s) 28.781 (TCA, TLCA: 28.782)): 304.257 RLU | RLU, fluorescence trace (Time (s) 30.781 (TCA, TLCA: 30.782)): 388.704 RLU | RLU, fluorescence trace (Time (s) 32.781 (TCA, TLCA: 32.782)): 524.444 RLU | RLU, fluorescence trace (Time (s) 34.781 (TCA, TLCA: 34.782)): 591.908 RLU | RLU, fluorescence trace (Time (s) 36.781 (TCA, TLCA: 36.782)): 664.761 RLU | RLU, fluorescence trace (Time (s) 38.781 (TCA, TLCA: 38.782)): 747.083 RLU | RLU, fluorescence trace (Time (s) 40.781 (TCA, TLCA: 40.782)): 780.753 RLU | RLU, fluorescence trace (Time (s) 42.781 (TCA, TLCA: 42.782)): 820.227 RLU | RLU, fluorescence trace (Time (s) 44.781 (TCA, TLCA: 44.782)): 854.725 RLU | RLU, fluorescence trace (Time (s) 46.781 (TCA, TLCA: 46.782)): 885.437 RLU | RLU, fluorescence trace (Time (s) 48.781 (TCA, TLCA: 48.782)): 869.015 RLU | RLU, fluorescence trace (Time (s) 50.781 (TCA, TLCA: 50.782)): 904.393 RLU | RLU, fluorescence trace (Time (s) 52.781 (TCA, TLCA: 52.782)): 904.624 RLU | RLU, fluorescence trace (Time (s) 54.781 (TCA, TLCA: 54.782)): 934.879 RLU | RLU, fluorescence trace (Time (s) 56.781 (TCA, TLCA: 56.782)): 910.42 RLU | RLU, fluorescence trace (Time (s) 58.781 (TCA, TLCA: 58.782)): 920.415 RLU | RLU, fluorescence trace (Time (s) 60.781 (TCA, TLCA: 60.782)): 939.945 RLU | RLU, fluorescence trace (Time (s) 62.781 (TCA, TLCA: 62.782)): 894.354 RLU | RLU, fluorescence trace (Time (s) 64.781 (TCA, TLCA: 64.782)): 892.209 RLU | RLU, fluorescence trace (Time (s) 66.781 (TCA, TLCA: 66.782)): 883.058 RLU | RLU, fluorescence trace (Time (s) 68.781 (TCA, TLCA: 68.782)): 897.442 RLU | RLU, fluorescence trace (Time (s) 70.781 (TCA, TLCA: 70.782)): 864.365 RLU | RLU, fluorescence trace (Time (s) 72.781 (TCA, TLCA: 72.782)): 888.719 RLU | RLU, fluorescence trace (Time (s) 74.781 (TCA, TLCA: 74.782)): 833.342 RLU | RLU, fluorescence trace (Time (s) 76.781 (TCA, TLCA: 76.782)): 856.102 RLU | RLU, fluorescence trace (Time (s) 78.781 (TCA, TLCA: 78.782)): 820.296 RLU | RLU, fluorescence trace (Time (s) 80.781 (TCA, TLCA: 80.782)): 794.483 RLU | RLU, fluorescence trace (Time (s) 82.781 (TCA, TLCA: 82.782)): 818.87 RLU | RLU, fluorescence trace (Time (s) 84.781 (TCA, TLCA: 84.782)): 756.604 RLU | RLU, fluorescence trace (Time (s) 86.781 (TCA, TLCA: 86.782)): 753.892 RLU | RLU, fluorescence trace (Time (s) 88.781 (TCA, TLCA: 88.782)): 732.115 RLU | RLU, fluorescence trace (Time (s) 90.781 (TCA, TLCA: 90.782)): 726.989 RLU

From paper PMC10247784, “Physiological activation of human and mouse bitter taste receptors by bile acids” (Communications Biology, 2023)
